Patent US9795652B2, “Use of endogenous antioxidant proteins in the treatment of stroke” (University of South Florida, priority 2010, dated 2017)

System: primary rat oligodendrocyte cultures
Assay: LIF protection of oligodendrocytes from oxygen glucose deprivation (extracellular LDH)
Assay type: cell-based
Settings: 24 hours OGD
Method: OL cell death in culture was determined using the LDH assay (Takara Bio, Inc., Madison, Wis.), since cell death is associated with LDH release through the plasma membrane. LDH is present in a large number of tissues, like the heart, liver, kidney, skeletal muscle, brain, blood cells, and lungs. Tissue breakdown releases LDH, thereby elevating circulating LDH and indicating tissue damage. Briefly, 100 μl of tissue culture media from each experimental group was added to a 96-well plate and 100 μl of LDH reagent was added to each well. Plates were incubated for 30 min at 25° C. and absorbances were read on a microplate reader at a 548 nm wavelength. The media from HUCB cell only cultures served as a control for HUCB cell death. The absorbance of HUCB cell only media, as well as the absorbance of media only, was subtracted from the total absorbance of the OL wells to eliminate background LDH activity.
An oxygen deprivation model was used to test the effect of LIF on primary rat oligodendrocyte cultures. Cells were grown in neurobasal medium containing B27 and […] glutamine prior to OGD. To simulate ischemic conditions, the neurobasal medium was replaced with DMEM containing no glucose (OGD). The cells were then exposed to 1% O2, 5% CO2 and 94% N2 for 24 hours. No LIF (OGD) or LIF was added to the cells, at the concentrations indicated. […]

leukemia inhibitory factor [LIF]
extracellular LDH levels compared to untreated (OGD) (LIF 100 pg): about 47.6%
extracellular LDH compared to untreated cells (LIF 50 ng): approximately 2.7%
